From PubChem BioAssay AID192 (DTP/NCI, 2004)
Where “and” joins values, the source holds several entries; their conditions need not be identical. Equal values may be shown once. Toxic doses and inconclusive results are not listed. Numbered stars: 1 amine (or outer) side, 2 acyl side, 3 side chain; on linkers, the order of the positions; unused ones are H or OH. Bridge positions count the residues as written; N and C are the ends. Square brackets hold non-standard residues; d marks the D form. Peptide text beside a SMILES is read from it. I, II: the chains in the order shown. Actinocin(9to1) = Cc1c2oc3c(C)ccc(C(=O)[*:1])c3nc-2c(C(=O)[*:2])c(N)c1=O; NMeV = CN[CH](C(=O)O)C(C)C; Sar = CNCC(=O)O

Tested on: BDF1 mice, B16 melanoma ip, median survival T/C
Assay: NCI In Vivo Anticancer Drug Screen. Data for tumor model B16 Melanoma (intraperitoneal) in B6D2F1 (BDF1) mice
Details: endpoint: median survival time, higher = longer survival
How it was run: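 The ratio T/C compares compound-treated mice with vehicle-treated controls, using survival or tumor size as the endpoint in a transplantable tumor model.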

[1] = dose: 100.0 mg/kg/injection, schedule: Q01DX009 (ip), vehicle: Klucel (hydroxypropylcellulose) (HPC)
[2] = dose: 50.0 mg/kg/injection, schedule: Q01DX009 (ip), vehicle: Klucel (hydroxypropylcellulose) (HPC)
[3] = dose: 200.0 mg/kg/injection, schedule: Q01DX009 (ip), vehicle: Klucel (hydroxypropylcellulose) (HPC)
[4] = dose: 25.0 mg/kg/injection, schedule: Q01DX009 (ip), vehicle: Klucel (hydroxypropylcellulose) (HPC)

SMILES: Cc1c2oc3c(C)ccc(C(=O)NC4C(=O)NC(C(C)C)C(=O)N(C)CC(=O)N(C)CC(=O)N(C)C(C(C)C)C(=O)OC4C)c3nc-2c(C(=O)NC2C(=O)NC(C(C)C)C(=O)N(C)CC(=O)N(C)CC(=O)N(C)C(C(C)C)C(=O)OC2C)c(N)c1=O (configuration not stated) (I: TV[Sar][Sar][NMeV] / II: TV[Sar][Sar][NMeV]; ester I:1-I:C, II:1-II:C; linker I:N-II:N via Actinocin(9to1); configuration not given here)
- T/C (dose: 0.71 mg/kg/injection, schedule: Q01DX009 (ip), vehicle: water): 161 % of control
- T/C (dose: 1.07 mg/kg/injection, schedule: Q01DX009 (ip), vehicle: water): 161 % of control
- T/C (dose: 125.0 micrograms/kg/injection, schedule: Q01DX009 (ip), vehicle: saline + alcohol): 112 % of control
- T/C (dose: 375.0 micrograms/kg/injection, schedule: Q04DX003 (ip), vehicle: saline + alcohol): 117 % of control and 123 % of control
- T/C (dose: 1500.0 micrograms/kg/injection, schedule: Q04DX003 (ip), vehicle: saline + alcohol): 162 % of control
- T/C (dose: 3000.0 micrograms/kg/injection, schedule: Q04DX003 (ip), vehicle: saline + alcohol): 159 % of control

SMILES: O=[N+]([O-])c1ccc(/C=C2/c3cc(Cl)ccc3-c3c(Cl)cc(Cl)cc32)cc1
- T/C (dose: 6.25 mg/kg/injection, schedule: Q01DX009 (ip), vehicle: saline with Tween-80): 90 % of control
- T/C (dose: 25.0 mg/kg/injection, schedule: Q01DX009 (ip), vehicle: saline with Tween-80): 88 % of control

SMILES: CCC1CN1P(=O)(N(CC)CC)N1CC1CC (configuration not stated)
- T/C (dose: 50.0 mg/kg/injection, schedule: Q01DX009 (ip), vehicle: saline with Tween-80): 113 % of control
- T/C (dose: 100.0 mg/kg/injection, schedule: Q01DX009 (ip), vehicle: saline with Tween-80): 117 % of control

SMILES: Cc1ccc(N=Nc2c(O)ccc3n[nH]nc23)cc1
- T/C [1]: 96 % of control

SMILES: CCCCCCCCCCCCCCCCS(=O)(=O)c1ccc(NN)cc1
- T/C [2]: 97 % of control
- T/C [3]: 86 % of control and 88 % of control

SMILES: Nc1nc(N)c2cc(CNc3ccc(C(=O)NC(CC(=O)O)CC(=O)O)cc3)ccc2n1
- T/C (dose: 0.04 mg/kg/injection, schedule: Q01DX009 (ip), vehicle: Klucel (hydroxypropylcellulose) (HPC)): 109 % of control
- T/C (dose: 0.09 mg/kg/injection, schedule: Q01DX009 (ip), vehicle: Klucel (hydroxypropylcellulose) (HPC)): 95 % of control
- T/C (dose: 0.19 mg/kg/injection, schedule: Q01DX009 (ip), vehicle: Klucel (hydroxypropylcellulose) (HPC)): 104 % of control
- T/C (dose: 0.39 mg/kg/injection, schedule: Q01DX009 (ip), vehicle: Klucel (hydroxypropylcellulose) (HPC)): 95 % of control
- T/C (dose: 0.78 mg/kg/injection, schedule: Q01DX009 (ip), vehicle: Klucel (hydroxypropylcellulose) (HPC)): 95 % of control and 112 % of control
- T/C (dose: 1.56 mg/kg/injection, schedule: Q01DX009 (ip), vehicle: Klucel (hydroxypropylcellulose) (HPC)): 112 % of control
- T/C (dose: 3.12 mg/kg/injection, schedule: Q01DX009 (ip), vehicle: Klucel (hydroxypropylcellulose) (HPC)): 93 % of control
- T/C (dose: 6.25 mg/kg/injection, schedule: Q01DX009 (ip), vehicle: Klucel (hydroxypropylcellulose) (HPC)): 93 % of control
- T/C (dose: 12.5 mg/kg/injection, schedule: Q01DX009 (ip), vehicle: Klucel (hydroxypropylcellulose) (HPC)): 90 % of control and 101 % of control and 102 % of control
- T/C [4]: 98 % of control and 124 % of control
- T/C [2]: 99 % of control

SMILES: CNC(=O)Nc1cccc(C(F)(F)F)c1
- T/C [4]: 99 % of control
- T/C [2]: 100 % of control
- T/C [1]: 90 % of control and 112 % of control

SMILES: CCc1ccccc1NC(=O)NC(C)C
- T/C (dose: 100.0 mg/kg/injection, schedule: Q04DX003 (ip), vehicle: Klucel (hydroxypropylcellulose) (HPC)): 100 % of control
- T/C (dose: 200.0 mg/kg/injection, schedule: Q04DX003 (ip), vehicle: Klucel (hydroxypropylcellulose) (HPC)): 110 % of control
- T/C (dose: 400.0 mg/kg/injection, schedule: Q04DX003 (ip), vehicle: Klucel (hydroxypropylcellulose) (HPC)): 100 % of control

SMILES: CNC(=S)N/N=C/CCC/C=N/NC(=S)NC
- T/C (dose: 15.9 mg/kg/injection, schedule: Q01DX009 (ip), vehicle: saline with Tween-80): 88 % of control
- T/C (dose: 31.8 mg/kg/injection, schedule: Q01DX009 (ip), vehicle: saline with Tween-80): 92 % of control

SMILES: Cc1cc(=O)[nH]c2ccc(-c3ccc4[nH]c(=O)cc(C)c4c3)cc12
- T/C [1]: 96 % of control
- T/C [3]: 93 % of control

SMILES: COc1ccc(COC=O)cc1
- T/C [1]: 100 % of control
- T/C [3]: 109 % of control
- T/C (dose: 400.0 mg/kg/injection, schedule: Q01DX009 (ip), vehicle: Klucel (hydroxypropylcellulose) (HPC)): 106 % of control
